From PubChem BioAssay (NCI)
Several values for one entry are separate records, joined by “and”; a condition that tells them apart may be missing. Equal entries are not always repeated.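 Briefly, cells in 96-well plates were exposed to five compound concentrations for 48 h, and endpoints were estimated by linear interpolation. GI50 is the concentration that inhibits growth by half. TGI: concentration producing complete growth inhibition.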

Legend:
Test in all cases: NCI anticancer screen, dose series, 48 h
HL-60(TB) leukemia = system: HL-60(TB) leukemia
DMS 114 small cell lung = system: DMS 114 small cell lung
DLD-1 colon = system: DLD-1 colon
LXFL 529 NSCLC = system: LXFL 529 NSCLC
XF 498 CNS = system: XF 498 CNS
BT-549 breast = system: BT-549 breast
MDA-MB-435 = system: MDA-MB-435
T-47D breast = system: T-47D breast
MCF7 breast = system: MCF7 breast
HS 578T breast = system: HS 578T breast

Row | SMILES | TGI (HL-60(TB) leukemia) | TGI (DMS 114 small cell lung) [µM] | TGI (DLD-1 colon) [µM] | TGI (LXFL 529 NSCLC) [µM] | TGI (XF 498 CNS) [µM] | TGI (BT-549 breast) [µM] | TGI (MDA-MB-435) [µM] | TGI (T-47D breast) | TGI (MCF7 breast) [µM] | TGI (HS 578T breast) [µM] | GI50 (BT-549 breast) [µM] | GI50 (HL-60(TB) leukemia) | GI50 (MDA-MB-435) [µM] | GI50 (T-47D breast) [µM] | GI50 (HS 578T breast) [µM] | GI50 (MCF7 breast) [µM]
1 | CCOc1cccc2cccnc12 | > 100 µM | > 100 | > 100 | > 100 | > 100 | – | – | – | – | – | – | – | – | – | – | –
2 | COc1ncn(C2C=C(CO)C(O)C2O)c(=O)n1 (stereo not given) | > 100 µM | > 100 | > 100 | > 100 | – | – | – | – | – | – | – | – | – | – | – | –
3 | CCOC(=O)C(=C=Cc1cccs1)C(=O)c1ccccc1 | 80.9 µM | – | 27.8 | 28.4 | 32.6 | – | – | – | – | – | – | – | – | – | – | –
4 | CC(=O)OCC1OC(n2c(-c3ccc(N)cc3)cc(-c3ccco3)c(C#N)c2=O)C(OC(C)=O)C(OC(C)=O)C1OC(C)=O (stereo not given) | – | > 50 | > 50 | > 50 | – | – | – | – | – | – | – | – | – | – | – | –
5 | CCCCCCCCOCC(O)COC (stereo not given) | > 100 µM | > 100 | > 100 | > 100 | – | – | – | – | – | – | – | – | – | – | – | –
6 | O=C(O)C(=O)/C=C\c1ccc(Cl)cc1 | > 100 µM | > 100 | > 100 | > 100 | > 100 | – | – | – | – | – | – | – | – | – | – | –
7 | CC(=O)OC1CC[C@@]2(C)C(CC(OC3OC(CO)C(O)C(O)C3O)[C@]3(C)C2CCC24CC23CC[C@H]4C(C)CC(O)[C@@H](O)C(C)(C)O)C1(C)C (stereo not given in full) | 24.9 µM | 20.6 | > 50 | 16.1 | – | – | – | – | – | – | – | – | – | – | – | –
8 | COc1cc(OC)c(Oc2cccc(OC)c2OC)c(OC)c1 | – | > 100 | > 100 | > 100 | > 100 | – | – | – | – | – | – | – | – | – | – | –
9 | CC(C)(C)NC(=O)C12C3C4C1C1C2C3C41I (stereo not given) | > 100 µM | > 100 | – | > 100 | > 100 | – | – | – | – | – | – | – | – | – | – | –
10 | C[N+](C)(C)CC(=O)NC(=O)N/N=C\C(CC#N)CN(Cc1ccccc1)Cc1ccccc1 (stereo not given) | > 100 µM | > 100 | > 100 | > 100 | > 100 | – | – | – | – | – | – | – | – | – | – | –
11 | O=C1/C=C(/c2ccc(O)cc2)[C@H](O)Cc2ccc(OC3OC(CO)C(O)C(O)C3O)cc2O1 (stereo not given in full) (tested in a mixture with another compound) | > 100 µM | > 100 | > 100 | > 100 | – | – | – | – | – | – | – | – | – | – | – | –
12 | COc1ccc(NC(=O)CC(=O)n2nc(-c3ccccc3)c(N=Nc3ccc(C)cc3)c2-c2ccccc2)cc1 | > 100 µM | > 80.1 | > 100 | > 100 | 24.9 | > 58 | > 100 | > 75 µM | > 85.2 | 60.7 | – | – | – | – | – | –
13 | NC(N)=Nc1nc2cc(N)ccc2o1 | > 100 µM | – | > 100 | – | – | – | – | – | – | – | – | – | – | – | – | –
14 | Cc1cc(C)c(-c2noc(-c3ccc(Cl)cc3)c2C2=NCCN2)c(C)c1 | 46.4 µM | – | 75.9 | 44.5 | 38.4 | – | – | – | – | – | – | – | – | – | – | –
15 | COC(=O)C1=C(SC)SC2(C(=O)OC)C3C=C(C)C4C(N13)C42C(=O)OC (stereo not given) | > 100 µM | > 100 | > 100 | > 100 | – | – | – | – | – | – | – | – | – | – | – | –
16 | O=C(N/C(=C\c1cc(Cl)ccc1Cl)c1nc2ccccc2[nH]1)c1ccccc1 | 67 µM | > 100 | 37 | > 100 | 69 | – | – | – | – | – | – | – | – | – | – | –
17 | COc1ccc(-c2cc(-c3ccco3)c(C#N)c(=O)n2C2OC(OC(=O)c3ccccc3)C(OC(=O)c3ccccc3)C2OC(=O)c2ccccc2)cc1 (stereo not given) | – | > 100 | > 100 | > 100 | – | – | – | – | – | – | – | – | – | – | – | –
18 | Nc1ncnc2c1ncn2C1OC(CO)C(O)C1O (stereo not given) | > 100 µM and 328 µM and 56 µM | > 437 | > 450 | – | > 450 | 59 | > 100 | > 100 µM and 13.5 µM | – | 54.4 | 7.69 | 22.9 µM and 105 µM and 13.8 µM | 38.8 | 0.738 | 16.2 | –
19 | N=C(N)c1ccc(-c2ccc(-c3ccco3)o2)cc1 | 5.53 µM | – | – | – | – | 19.8 | 4.03 | 12.7 µM | 14.3 | 24.2 | 5.9 | 2.19 µM | 1.83 | 2.92 | 4.82 | 2.08
20 | COc1cc(C2CC(c3ccc(C)cc3)=NN2C(C)=O)ccc1Oc1ccnc2cc(Cl)ccc12 (stereo not given) | > 100 µM | – | – | – | – | > 100 | > 100 | 73.4 µM | > 100 | > 100 | 3.48 | > 100 µM | > 100 | 2.28 | 2.6 | > 100
21 | COC(=O)c1ccc2n[se]nc2c1 | > 100 µM | > 100 | > 100 | > 100 | > 100 | – | – | – | – | – | – | – | – | – | – | –
22 | CC(C)CCC[C@@H](C)C1CCC2[C@@H]3CC=C4C[C@@H](OC(=O)CCC(=O)NCC[N+](C)(C)CCCS(=O)(=O)[O-])CC[C@]4(C)C3CC[C@@]21C (stereo not given in full) | 36.6 µM | 36.1 | 44.9 | 71.6 | – | – | – | – | – | – | – | – | – | – | – | –
23 | COc1cc(C=C2C(=O)OC(C)(C)OC2=O)cc(OC)c1OC | > 100 µM | > 100 | > 100 | > 100 | – | – | – | – | – | – | – | – | – | – | – | –
24 | O=c1c2ccccc2oc2nccnc12 | – | > 100 | > 100 | > 100 | > 100 | – | – | – | – | – | – | – | – | – | – | –
25 | O=C1/C(=C/c2ccc(F)cc2)CN(Cc2cn(CCNc3ccnc4cc(Cl)ccc34)nn2)C/C1=C\c1ccc(F)cc1 | 4.97 µM | – | – | – | – | 3.26 | 2.73 | 4.33 µM | 1.75 | 7.56 | 1.85 | 1.41 µM | 1.41 | 1.89 | 2.33 | 0.4
26 | O=C(CC1Sc2ccccc2NC1=O)Nc1ccc([N+](=O)[O-])cc1[N+](=O)[O-] (stereo not given) | 41.9 µM | 27.5 | 28.6 | 28.7 | – | – | – | – | – | – | – | – | – | – | – | –
27 | N#CC1(Cc2ccccc2Cl)c2ccccc2C=CN1C(=O)c1ccccc1 (stereo not given) | > 100 µM | > 100 | – | > 100 | > 100 | – | – | – | – | – | – | – | – | – | – | –
28 | COc1ccc(C2CC(c3cccc(Nc4ccnc5cc(Cl)ccc45)c3)=NN2c2ccccc2)cc1 (stereo not given) | 17.5 µM | – | – | – | – | 39.2 | 2.92 | 20 µM | 27.4 | 73.2 | 7.42 | 0.282 µM | 0.219 | 0.171 | 6.79 | 1.52
